A short description of data set [1]: Loading of doxorubicin into liposome polymer matrices. The class given is physicochemical. As to conditions: polymer/lipid:drug ratio approximately at least 50:1, mol/mol. The protocol:
The spheres that were subjected to ultrafiltration or column washes were stored for a variable amount of time in a minimal amount of 3 M sucrose, 750 mM Histidine HCl to maintain hydration at 20° C. and 5° C. Following storage the loading efficiency of doxorubicin into the spheres was assessed (table 1). For drug loading a procedure that could easily be implement in the pharmacy was employed. Specifically a water bath or dry heat block was allowed to equilibrate at 58° C. (55°-60° C.). For each 1 mL packed volume of microspheres, 50 mg of lyophilized doxorubicin (for storage lactose and parahydroxybenzoate may be added) in a solution of 8 mL was prepared. This solution was then added to the equilibrated heating source for 10 min. Next a 2 mL concentrated solution of sodium carbonate was injected into the microsphere solution. The 2 mL of microspheres and 8 mL of doxorubicin were then combined creating a solution with pH of 7 (this step should be done within 2 minutes of adding sodium carbonate to the microspheres). The mixture should be shaken vigorously and allowed to sit for at least 10 minutes in the heat block or water bath and then brought to room temperature. After this period the spheres can be stored up to 10 hours at 25° C. and for 7 days at 2° C.-8° C. […]

Data set [2] relates to tumors growing within the liver. As to conditions: rabbit model for liver cancer; cited from earlier work.

With `COc1cccc2c1C(=O)c1c(O)c3c(c(O)c1C2=O)C[C@@](O)(C(=O)CO)C[C@@H]3O[C@H]1C[C@H](N)[C@H](O)[C@H](C)O1` [doxorubicin], in data set [1], the “added doxorubicin that becomes vesicle entrapped as doxorubicin-citrate” value is listed as “greater than 90%”. For `O=C(O)C(=O)CBr` [3-bromopyruvate], the “effect of bolus injection on non-tumor tissue” value in data set [2] is given as “damages surrounding liver tissue”.
